Experiments:
Format in all cases: physicochemical
[1] = Particle size distribution by MASTERSIZER 2000 laser light scattering
From the text: The particle size distribution plots of the drawings were obtained using a MASTERSIZER™ 2000 laser light scattering instrument sold by Malvern Instruments Ltd. of Malvern, Worcestershire, United Kingdom. In the plots, values in the vertical axis represent a volume percentage of particles and the horizontal axis is a logarithmic scale of particle sizes, in μm units.

[2] = Bulk density and tapped bulk density, Test Method 616 of United States Pharmacopeia 24; conditions: for tapped bulk density: after tapping
[3] = Storage of polymorphic forms under ambient conditions, form checked by XRPD; conditions: for polymorphic form after storage (XRPD pattern): ambient conditions; for polymorphic form stability upon storage: storage at ambient temperatures
From the text: The various forms of tadalafil are characterized by their XRPD patterns, which differ between polymorpic forms. All XRPD results reported herein were obtained using Cu Kα radiation, having the wavelength 1.541 Å. The XRPD patterns of the figures have a vertical axis that is intensity units, and a horizontal axis that is degrees 2θ.

SMILES	diameters of 10 volume percent of the particles [1]	diameters of 50 volume percent of the particles [1]	diameters of 90 volume percent of the particles [1]	bulk density [2] [g/mL]	tapped bulk density [2] [g/mL]	polymorphic form after storage (XRPD pattern) ([3]; sealed in a polyethylene bag, 40 hours)	polymorphic form stability upon storage [3]	polymorphic form after storage (XRPD pattern) ([3]; sealed polyethylene bag, 3 to 4 days)	polymorphic form stability upon storage ([3]; listed as mixtures of Form A and Form B)
CN1CC(=O)N2[C@H](c3ccc4c(c3)OCO4)c3[nH]c4ccccc4c3C[C@@H]2C1=O [Example 1, tadalafil]	less than 31 μm	less than 104 μm	less than 321 μm	0.344	0.666	–	–	–	–
CN1CC(=O)N2[C@H](c3ccc4c(c3)OCO4)c3[nH]c4ccccc4c3C[C@@H]2C1=O [Example 11, tadalafil]	less than 9.9 μm	less than 40 μm	less than 148 μm	0.181	0.434	–	–	–	–
CN1CC(=O)N2[C@H](c3ccc4c(c3)OCO4)c3[nH]c4ccccc4c3C[C@@H]2C1=O [Example 15, tadalafil]	less than 58 μm	less than 193 μm	less than 428 μm	0.435	0.626	–	–	–	–
CN1CC(=O)N2[C@H](c3ccc4c(c3)OCO4)c3[nH]c4ccccc4c3C[C@@H]2C1=O [Tadalafil Form B, tadalafil]	–	–	–	–	–	conversion of the tadalafil Form B into Form A	spontaneously converts to Form A	–	–
CN1CC(=O)N2[C@H](c3ccc4c(c3)OCO4)c3[nH]c4ccccc4c3C[C@@H]2C1=O [Example 21, tadalafil]	–	–	–	–	–	–	–	conversion of the tadalafil Form B into Form A	will convert to only Form A

Reference: US8063214B2, “Polymorphic forms of tadalafil” (Dr. Reddy's Laboratories Limited, priority 2004, dated 2011)
